Laboratory results: patent US20250114345A1, “COMPOUNDS AND COMPOSITIONS AS CBP/P300 DEGRADERS AND USES THEREOF” (Oncopia Therapeutics, Inc. d/b/a/ SK Life Science Labs, priority 2023, published 2025)

Biological target: T1, p300 (Homo sapiens, UniProt Q09472)
T1 construct: host or cells: A549 P300 HiBit cells
Experiment: P300 degradation, HiBit technology in A549 P300 HiBit cells (2 h)
Format: cell-based
Details: 2 hrs post treatment; for Dmax: A549, A549 P300 HiBit cells; for DC50: A549 P300 HiBit cells
How it was run: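 A549 HiBiT knock-in cells seeded overnight at 37 °C, 5% CO2 in F-12K with 10% heat-inactivated FBS, then given serial dilutions of compound from 10 mM DMSO stocks. Lytic HiBiT detection reagent added for 10 min at room temperature; luminescence read. Potency and Dmax reported.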

T1 sequence (Q09472 whole entry): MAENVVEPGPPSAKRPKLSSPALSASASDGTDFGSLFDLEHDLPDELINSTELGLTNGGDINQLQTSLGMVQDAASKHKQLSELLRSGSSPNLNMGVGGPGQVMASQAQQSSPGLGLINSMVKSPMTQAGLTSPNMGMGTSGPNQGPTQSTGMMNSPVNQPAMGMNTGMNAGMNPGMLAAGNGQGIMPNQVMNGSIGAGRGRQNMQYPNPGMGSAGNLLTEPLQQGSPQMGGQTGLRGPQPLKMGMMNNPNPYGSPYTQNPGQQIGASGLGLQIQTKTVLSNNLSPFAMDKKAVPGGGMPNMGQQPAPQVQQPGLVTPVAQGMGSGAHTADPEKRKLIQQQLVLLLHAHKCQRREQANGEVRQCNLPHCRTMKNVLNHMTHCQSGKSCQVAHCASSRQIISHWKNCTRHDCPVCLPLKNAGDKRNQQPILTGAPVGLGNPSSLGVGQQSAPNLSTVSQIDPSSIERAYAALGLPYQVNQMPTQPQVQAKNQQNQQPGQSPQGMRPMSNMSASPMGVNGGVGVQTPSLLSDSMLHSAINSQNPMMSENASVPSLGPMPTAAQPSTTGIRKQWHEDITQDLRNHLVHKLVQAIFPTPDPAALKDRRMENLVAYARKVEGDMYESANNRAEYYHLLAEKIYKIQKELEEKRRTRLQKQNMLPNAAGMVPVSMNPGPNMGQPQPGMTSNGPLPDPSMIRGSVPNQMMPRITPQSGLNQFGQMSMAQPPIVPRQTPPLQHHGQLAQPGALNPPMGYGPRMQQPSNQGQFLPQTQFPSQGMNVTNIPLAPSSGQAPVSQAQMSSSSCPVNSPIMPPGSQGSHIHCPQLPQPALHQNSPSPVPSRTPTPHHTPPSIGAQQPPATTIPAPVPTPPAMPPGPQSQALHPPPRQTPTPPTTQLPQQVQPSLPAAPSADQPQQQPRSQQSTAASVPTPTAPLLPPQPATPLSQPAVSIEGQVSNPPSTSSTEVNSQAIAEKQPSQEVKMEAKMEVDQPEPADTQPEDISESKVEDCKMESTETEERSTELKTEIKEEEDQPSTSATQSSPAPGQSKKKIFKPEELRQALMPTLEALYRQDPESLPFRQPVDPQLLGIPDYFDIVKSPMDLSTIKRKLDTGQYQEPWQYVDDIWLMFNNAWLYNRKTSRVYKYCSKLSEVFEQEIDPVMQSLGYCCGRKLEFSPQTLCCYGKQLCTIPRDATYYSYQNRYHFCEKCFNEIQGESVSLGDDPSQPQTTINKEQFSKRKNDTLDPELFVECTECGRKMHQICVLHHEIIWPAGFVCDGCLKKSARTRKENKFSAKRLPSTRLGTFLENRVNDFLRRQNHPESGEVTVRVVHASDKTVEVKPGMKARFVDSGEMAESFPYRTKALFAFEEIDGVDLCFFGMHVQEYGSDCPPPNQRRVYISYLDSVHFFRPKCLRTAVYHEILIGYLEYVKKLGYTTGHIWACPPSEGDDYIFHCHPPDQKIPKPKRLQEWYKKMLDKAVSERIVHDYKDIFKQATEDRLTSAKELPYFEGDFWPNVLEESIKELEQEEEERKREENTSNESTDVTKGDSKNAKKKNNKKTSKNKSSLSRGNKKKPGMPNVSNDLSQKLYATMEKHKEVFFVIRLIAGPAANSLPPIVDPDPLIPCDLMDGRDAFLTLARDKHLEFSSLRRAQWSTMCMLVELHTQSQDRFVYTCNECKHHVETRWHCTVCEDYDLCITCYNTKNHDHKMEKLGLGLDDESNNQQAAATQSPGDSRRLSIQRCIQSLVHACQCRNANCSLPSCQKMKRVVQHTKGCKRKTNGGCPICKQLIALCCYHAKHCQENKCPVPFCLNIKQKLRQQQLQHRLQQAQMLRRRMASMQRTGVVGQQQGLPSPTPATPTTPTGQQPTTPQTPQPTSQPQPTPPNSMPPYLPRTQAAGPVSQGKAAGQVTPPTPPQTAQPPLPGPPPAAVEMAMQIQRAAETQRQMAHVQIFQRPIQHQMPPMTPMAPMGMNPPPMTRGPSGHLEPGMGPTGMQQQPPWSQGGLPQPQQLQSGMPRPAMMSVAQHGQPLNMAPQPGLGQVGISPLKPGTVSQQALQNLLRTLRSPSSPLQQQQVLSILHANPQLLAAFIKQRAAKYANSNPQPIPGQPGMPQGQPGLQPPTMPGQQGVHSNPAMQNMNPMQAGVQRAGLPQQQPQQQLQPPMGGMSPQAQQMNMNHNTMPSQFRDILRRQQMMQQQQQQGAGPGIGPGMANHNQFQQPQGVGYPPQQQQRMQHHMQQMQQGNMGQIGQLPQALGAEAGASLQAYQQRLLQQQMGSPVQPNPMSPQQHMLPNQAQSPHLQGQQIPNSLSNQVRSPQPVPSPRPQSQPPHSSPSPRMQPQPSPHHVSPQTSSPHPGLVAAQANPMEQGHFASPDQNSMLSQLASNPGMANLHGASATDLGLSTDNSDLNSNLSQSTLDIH

Compound	Dmax	DC50
CN(c1cnc(-c2ccc(C(=O)NCC#Cc3cc4c(C5CCC(=O)NC5=O)cccc4o3)nc2)nc1)c1cc(C2CCOCC2)c2c(c1)n(C)c(=O)n2C (centres unmarked) [Example A229, 5-(5-((1,3-dimethyl-2-oxo-7-(tetrahydro-2H-pyran-4-yl)-2,3-dihydro-1H-benzo[d]imidazol-5-yl)(methyl)amino)pyrimidin-2-yl)-N-(3-(4-(2,6-dioxo-piperidin-3-yl)benzofuran-2-yl)prop-2-yn-1-yl)picolinamide]	> 80%	< 1 nM
Cc1cc(-c2ncc3c(n2)CCCN3c2ccc3c(c2)n(C)c(=O)n3C)cnc1C(=O)NCC#Cc1cc2c(C3CCC(=O)NC3=O)cccc2o1 (centres unmarked) [Example A231, 5-(5-(1,3-dimethyl-2-oxo-2,3-dihydro-1H-benzo[d]imidazol-5-yl)-5,6,7,8-tetra-hydropyrido[3,2-d]pyrimidin-2-yl)-N-(3-(4-(2,6-dioxo-piperidin-3-yl)benzofuran-2-yl)prop-2-yn-1-yl)-3-methylpicolinamide]	> 80%	1 to 9.9 nM
Cc1cc(-c2ncc(N(C)c3cc(C(C)C)c4c(c3)n(C)c(=O)n4C)cn2)cnc1C(=O)NCC#Cc1cc2c(C3CCC(=O)NC3=O)coc2cc1F (centres unmarked) [Example A235, N-(3-(3-(2,6-dioxo-piperidin-3-yl)-6-fluorobenzofuran-5-yl)prop-2-yn-1-yl)-5-(5-((7-isopropyl-1,3-dimethyl-2-oxo-2,3-dihydro-1H-benzo [d]imidazol-5-yl)(methyl)amino)pyrimidin-2-yl)-3-methylpicolinamide]	> 80%	1 to 9.9 nM
Cc1cc(-c2ncc(Nc3cc(C4CCOCC4)c4c(c3)n(C)c(=O)n4C)cn2)cnc1C(=O)NCC#Cc1cc2c(C3CCC(=O)NC3=O)cccc2o1 (centres unmarked) [Example A236, 5-(5-((1,3-dimethyl-2-oxo-7-(tetrahydro-2H-pyran-4-yl)-2,3-dihydro-1H-benzo[d]imidazol-5-yl)amino)pyrimidin-2-yl)-N-(3-(4-(2,6-dioxopiperidin-3-yl)benzofuran-2-yl)prop-2-yn-1-yl)-3-methylpicolinamide]	40 to 59%	10 to 99 nM
Cc1cc(-c2ncc3c(n2)OCCN3c2cc(C)c3c(c2)n(C)c(=O)n3C)cnc1C(=O)NCC#Cc1cc2c(C3CCC(=O)NC3=O)cccc2o1 (centres unmarked) [Example A241, N-(3-(4-(2,6-dioxo-piperidin-3-yl)benzofuran-2-yl)prop-2-yn-1-yl)-3-methyl-5-(5-(1,3,7-trimethyl-2-oxo-2,3-dihydro-1H-benzo [d]imidazol-5-yl)-6,7-dihydro-5H-pyrimido [4,5-b][1,4]oxazin-2-yl)picolinamide]	> 80%	1 to 9.9 nM
CN1CCN(c2ccc3c(c2)n(C)c(=O)n3C)c2cc(C(F)(F)F)c(-c3ccc(C(=O)NCC#Cc4cc5c(C6CCC(=O)NC6=O)cccc5o4)nc3)cc21 (centres unmarked) [Example A242, 5-(1-(1,3-dimethyl-2-oxo-2,3-dihydro-1H-benzo[d]imidazol-5-yl)-4-methyl-7-(trifluoromethyl)-1,2,3,4-tetrahydroquinoxalin-6-yl)-N-(3-(4-(2,6-dioxopiperidin-3-yl)benzofuran-2-yl)prop-2-yn-1-yl)picolinamide]	> 80%	1 to 9.9 nM
Cc1cc(-c2cc(F)c(Nc3cc(C4CCOCC4)c4c(c3)n(C)c(=O)n4C)cc2C(F)(F)F)cnc1C(=O)NCC#Cc1cc2c(C3CCC(=O)NC3=O)cccc2o1 (centres unmarked) [Example A244, 5-(4-((1,3-dimethyl-2-oxo-7-(tetrahydro-2H-pyran-4-yl)-2,3-dihydro-1H-benzo[d]imidazol-5-yl)amino)-5-fluoro-2-(trifluoromethyl)phenyl)-N-(3-(4-(2,6-dioxopiperidin-3-yl)benzofuran-2-yl)prop-2-yn-1-yl)-3-methylpicolinamide]	40 to 59%	10 to 99 nM
CN1CCN(c2ccc3c(c2)n(C)c(=O)n3C)c2cnc(-c3ccc(C(=O)NCC#Cc4cc5c(C6CCC(=O)NC6=O)nccc5o4)nc3)nc21 (centres unmarked) [Example A245, 5-(5-(1,3-dimethyl-2-oxo-2,3-dihydro-1H-benzo[d]imidazol-5-yl)-8-methyl-5,6,7,8-tetrahydropteridin-2-yl)-N-(3-(4-(2,6-dioxopiperidin-3-yl)furo[3,2-c]pyridin-2-yl)prop-2-yn-1-yl) picolinamide]	> 80%	< 1 nM
Cn1c(=O)n(C)c2cc(N3CCOc4nc(-c5ccc(C(=O)NCC#Cc6ccn7ncc(C8CCC(=O)NC8=O)c7c6)nc5)ncc43)ccc21 (centres unmarked) [Example A246, 5-(5-(1,3-dimethyl-2-oxo-2,3-dihydro-1H-benzo[d]imidazol-5-yl)-6,7-dihydro-5H-pyrimido[4,5-b][1,4]oxazin-2-yl)-N-(3-(3-(2,6-dioxopiperidin-3-yl)pyrazolo[1,5-a]pyridin-5-yl)prop-2-yn-1-yl)picolinamide]	40 to 59%	1 to 9.9 nM
Cc1cc(-c2ncc3c(n2)OCCN3c2cc(C3CCOCC3)c3c(c2)n(C)c(=O)n3C)cnc1C(=O)NCC#Cc1cc2c(C3CCC(=O)NC3=O)cccc2o1 (centres unmarked) [Example A252, 5-(5-(1,3-dimethyl-2-oxo-7-(tetrahydro-2H-pyran-4-yl)-2,3-dihydro-1H-benzo[d]imidazol-5-yl)-6,7-dihydro-5H-pyrimido[4,5-b][1,4]oxazin-2-yl)-N-(3-(4-(2,6-dioxopiperidin-3-yl)benzofuran-2-yl)prop-2-yn-1-yl)-3-methylpicolinamide]	> 80%	1 to 9.9 nM
Cc1cc(-c2ncc(N(C)c3cc(C4CCOCC4)c4c(c3)n(C)c(=O)n4C)cn2)cnc1C(=O)NCC#Cc1cc2c(C3CCC(=O)NC3=O)cccc2o1 (centres unmarked) [Example A256, 5-(5-((1,3-dimethyl-2-oxo-7-(tetrahydro-2H-pyran-4-yl)-2,3-dihydro-1H-benzo[d]imidazol-5-yl)(methyl)amino)pyrimidin-2-yl)-N-(3-(4-(2,6-dioxo-piperidin-3-yl)benzo-furan-2-yl)prop-2-yn-1-yl)-3-methylpicolinamide]	> 80%	1 to 9.9 nM
Cc1cc(-c2cc(F)c(Nc3cc(C4CCOCC4)c4c(c3)n(C)c(=O)n4C)cc2C(F)F)cnc1C(=O)NCC#Cc1cc2c(C3CCC(=O)NC3=O)cccc2o1 (centres unmarked) [Example A257, 5-(2-(difluoromethyl)-4-((1,3-dimethyl-2-oxo-7-(tetrahydro-2H-pyran-4-yl)-2,3-dihydro-1H-benzo [d]imidazol-5-yl)amino)-5-fluoro-phenyl)-N-(3-(4-(2,6-dioxopiperidin-3-yl)benzofuran-2-yl)prop-2-yn-1-yl)-3-methylpicolinamide]	60 to 79%	1 to 9.9 nM

The next lines start with the values.

Dmax	DC50	Compound
> 80%	1 to 9.9 nM	Cn1cc(-c2ccc3c(c2)n(C)c(=O)n3C)c2cnc(-c3ccc(C(=O)NCC#Cc4cc5c(C6CCC(=O)NC6=O)nccc5o4)nc3)cc2c1=O (centres unmarked) [Example A230, 5-(8-(1,3-dimethyl-2-oxo-2,3-dihydro-1H-benzo[d]imidazol-5-yl)-6-methyl-5-oxo-5,6-dihydro-2,6-naphthyridin-3-yl)-N-(3-(4-(2,6-dioxopiperidin-3-yl)furo[3,2-c]pyridin-2-yl)prop-2-yn-1-yl)picolinamide]
40 to 59%	10 to 99 nM	CC(C)c1cc(-c2cccc3cc(-c4ccc(C(=O)NCC#Cc5cc6c(C7CCC(=O)NC7=O)cn(C)c6cn5)nc4)ncc23)cc2c1n(C)c(=O)n2C (centres unmarked) [Example A232, N-(3-(3-(2,6-dioxo-piperidin-3-yl)-1-methyl-1H-pyrrolo [2,3-c]pyridin-5-yl)prop-2-yn-1-yl)-5-(8-(7-isopropyl-1,3-dimethyl-2-oxo-2,3-dihydro-1H-benzo[d]imidazol-5-yl)isoquinolin-3-yl)picolinamide]
40 to 59%	10 to 99 nM	CC(C)c1cc(-c2cccc3cc(-c4ccc(C(=O)NCC#Cc5cc(C#N)c6occ(C7CCC(=O)NC7=O)c6c5)nc4)ncc23)cc2c1n(C)c(=O)n2C (centres unmarked) [Example A233, N-(3-(7-cyano-3-(2,6-dioxopiperidin-3-yl)benzofuran-5-yl)prop-2-yn-1-yl)-5-(8-(7-isopropyl-1,3-dimethyl-2-oxo-2,3-dihydro-1H-benzo [d]imidazol-5-yl)isoquinolin-3-yl)picolinamide]
> 80%	< 1 nM	Cc1cc(N2CCN(C)c3cc(-c4ccc(C(=O)NCC#Cc5cc6c(C7CCC(=O)NC7=O)cccc6o5)nc4)ncc32)cc2c1n(C)c(=O)n2C (centres unmarked) [Example A239, N-(3-(4-(2,6-dioxo-piperidin-3-yl)benzofuran-2-yl)prop-2-yn-1-yl)-5-(1-methyl-4-(1,3,7-trimethyl-2-oxo-2,3-dihydro-1H-benzo [d]imidazol-5-yl)-1,2,3,4-tetrahydro-pyrido[3,4-b]pyrazin-7-yl)picolinamide]
40 to 59%	10 to 99 nM	CC(C)c1cc(-c2cccc3cc(-c4ccc(C(=O)NCC#Cc5cc6c(C7CCC(=O)NC7=O)coc6cc5C#N)nc4)ncc23)cc2c1n(C)c(=O)n2C (centres unmarked) [Example A240, N-(3-(6-cyano-3-(2,6-dioxopiperidin-3-yl)benzofuran-5-yl)prop-2-yn-1-yl)-5-(8-(7-isopropyl-1,3-dimethyl-2-oxo-2,3-dihydro-1H-benzo [d]imidazol-5-yl)isoquinolin-3-yl)picolinamide]
20 to 39%	10 to 99 nM	CC(C)c1cc(-c2cccc3cc(-c4ccc(C(=O)NCC#Cc5cnc6c(c5)N(C5CCC(=O)NC5=O)CC6)nc4)ncc23)cc2c1n(C)c(=O)n2C (centres unmarked) [Example A249, N-(3-(1-(2,6-dioxo-piperidin-3-yl)-2,3-dihydro-1H-pyrrolo [3,2-b]pyridin-6-yl)prop-2-yn-1-yl)-5-(8-(7-isopropyl-1,3-dimethyl-2-oxo-2,3-dihydro-1H-benzo[d]imidazol-5-yl)isoquinolin-3-yl)picolinamide]
> 80%	< 1 nM	Cn1c(=O)n(C)c2c(N3CC4CCC(C3)O4)nc(-c3cccc4cc(-c5ccc(C(=O)NCC#Cc6cc7c(C8CCC(=O)NC8=O)cccc7o6)nc5)ncc34)cc21 (centres unmarked) [Example A253, 5-(8-(4-(8-oxa-3-azabicyclo[3.2.1]octan-3-yl)-1,3-dimethyl-2-oxo-2,3-dihydro-1H-imidazo[4,5-c]pyridin-6-yl)isoquinolin-3-yl)-N-(3-(4-(2,6-dioxopiperidin-3-yl)benzofuran-2-yl)prop-2-yn-1-yl)picolinamide]
